Reference: the supplement of paper PMC10307832

Assays:
Experiment in all cases: relative viability (nuclei count vs DMSO), 5 days (fraction); higher = more cells survive
Motesanib + AZD7762 = compound: CC1(C)CNc2cc(NC(=O)c3cccnc3NCc3ccncc3)ccc21 [Motesanib] + NC(=O)Nc1cc(-c2cccc(F)c2)sc1C(=O)N[C@H]1CCCNC1 [AZD7762] (partner 0.2 µM)
Outline: (§1)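 Lung cancer cell lines were pin-tool dosed in 1536-well plates on the day after seeding, with either a lone drug or a fixed anchor-drug dose plus five library-drug doses (not always all listed) in √10 steps. Nuclei were counted on 4× images after 5 days. Relative viability is the ratio of treated-well to vehicle-well nuclei counts, with each value a median of duplicate plates.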

Motesanib + Palbociclib = compound: CC1(C)CNc2cc(NC(=O)c3cccnc3NCc3ccncc3)ccc21 [Motesanib] + CC(=O)c1c(C)c2cnc(Nc3ccc(N4CCNCC4)cn3)nc2n(C2CCCC2)c1=O [Palbociclib] (partner 0.5 µM)
Outline: as §1

[1] = compound: C[C@@]1(C(=O)Nc2ccc(F)nc2)CCCN1c1nc(Nc2cc(C3CC3)n[nH]2)c2cccn2n1 + CC(=O)c1c(C)c2cnc(Nc3ccc(N4CCNCC4)cn3)nc2n(C2CCCC2)c1=O [Palbociclib] (partner 0.5 µM)
Outline: as §1

Motesanib + Luminespib = compound: CC1(C)CNc2cc(NC(=O)c3cccnc3NCc3ccncc3)ccc21 [Motesanib] + CCNC(=O)c1noc(-c2cc(C(C)C)c(O)cc2O)c1-c1ccc(CN2CCOCC2)cc1 [Luminespib] (partner 0.01 µM)
Outline: as §1

Row | Cell Line | relative viability (Motesanib + AZD7762; first compound 0.01 µM) | relative viability (Motesanib + AZD7762; first compound 0.03162 µM) | relative viability (Motesanib + AZD7762; first compound 0.1 µM) | relative viability (Motesanib + AZD7762; first compound 0.3162 µM) | relative viability (Motesanib + AZD7762; first compound 1 µM) | relative viability (Motesanib + Palbociclib; first compound 0.01 µM) | relative viability (Motesanib + Palbociclib; first compound 0.03162 µM) | relative viability (Motesanib + Palbociclib; first compound 0.1 µM) | relative viability (Motesanib + Palbociclib; first compound 0.3162 µM) | relative viability (Motesanib + Palbociclib; first compound 1 µM) | relative viability ([1]; first compound 0.04 µM) | relative viability ([1]; first compound 0.1265 µM) | relative viability ([1]; first compound 0.4 µM) | relative viability ([1]; first compound 1.265 µM) | relative viability (Motesanib + Luminespib; first compound 0.01 µM) | relative viability (Motesanib + Luminespib; first compound 0.03162 µM) | relative viability (Motesanib + Luminespib; first compound 0.1 µM) | relative viability (Motesanib + Luminespib; first compound 0.3162 µM) | relative viability (Motesanib + Luminespib; first compound 1 µM)
1 | BEN | 0.617 | 0.877 | 0.645 | 0.576 | 0.799 | 0.458 | 0.457 | 0.478 | 0.481 | 0.476 | 0.445 | 0.484 | 0.472 | 0.427 | 0.331 | 0.46 | 0.393 | 0.498 | 0.387
2 | NCI-H1666 | 0.809 | 0.927 | 1.02 | 0.898 | 0.909 | 0.649 | 0.577 | 0.679 | 0.751 | 0.63 | 0.647 | 0.627 | 0.599 | 0.603 | 1.05 | 0.978 | 0.991 | 0.999 | 0.977
3 | LC-2-ad | 0.858 | 0.876 | 0.868 | 0.837 | 0.842 | 0.487 | 0.514 | 0.556 | 0.49 | 0.5 | 0.421 | 0.396 | 0.384 | 0.347 | 1.03 | 1.01 | 0.959 | 1.07 | 1.19
4 | ChaGo-K-1 | 0.89 | 0.812 | 0.804 | 0.836 | 0.795 | 0.899 | 0.881 | 0.976 | 0.856 | 0.908 | 0.972 | 0.828 | 0.86 | 0.93 | 0.525 | 0.656 | 0.589 | 0.552 | 0.588
5 | NCI-H1975 | 0.656 | 0.686 | 0.752 | 0.821 | 0.709 | 0.53 | 0.508 | 0.507 | 0.565 | 0.617 | 0.564 | 0.521 | 0.374 | 0.452 | 0.275 | 0.203 | 0.224 | 0.261 | 0.361
6 | NCI-H1993 | 0.788 | 0.725 | 0.595 | 0.676 | 0.863 | 0.675 | 0.622 | 0.752 | 0.626 | 0.553 | 0.461 | 0.465 | 0.27 | 0.49 | 0.923 | 0.734 | 0.826 | 0.863 | 0.932
7 | RERF-LC-KJ | 0.9 | 0.873 | 1.06 | 1.03 | 0.813 | 1.11 | 0.968 | 1.18 | 1.12 | 1.19 | 1.03 | 0.946 | 0.943 | 0.845 | 1.31 | 1.2 | 1.12 | 1.38 | 1.27
8 | NCI-H23 | 0.194 | 0.227 | 0.186 | 0.195 | 0.244 | 0.482 | 0.491 | 0.456 | 0.604 | 0.467 | 0.386 | 0.267 | 0.243 | 0.305 | – | 0.193 | 0.209 | 0.205 | 0.222
9 | EMC-BAC-2 | 1.07 | 1.1 | 1.09 | 1.2 | 1.04 | 0.513 | 0.511 | 0.526 | 0.526 | 0.534 | 0.393 | 0.333 | 0.331 | 0.369 | 1.2 | 1.16 | 1.14 | 1.16 | 1.05
10 | NCI-H2405 | 0.629 | 0.632 | 0.691 | 0.812 | 0.765 | 0.511 | 0.499 | 0.535 | 0.562 | 0.52 | 0.47 | 0.303 | 0.391 | 0.402 | – | 0.536 | 0.741 | 0.689 | 0.813
11 | NCI-H358 | 0.434 | 0.626 | 0.481 | 0.661 | 0.55 | 0.142 | 0.133 | 0.132 | 0.161 | 0.13 | 0.112 | 0.121 | 0.115 | 0.107 | 0.317 | 0.333 | 0.402 | 0.479 | 0.369
12 | NCI-H1944 | 0.425 | 0.476 | 0.532 | 0.541 | 0.472 | 0.352 | 0.328 | 0.334 | 0.302 | 0.326 | 0.272 | 0.237 | 0.251 | 0.294 | 0.79 | 0.785 | 0.749 | 0.772 | 0.78
13 | EPLC-272H | 0.145 | 0.268 | 0.151 | 0.21 | 0.267 | 0.284 | 0.3 | 0.344 | 0.36 | 0.381 | 0.253 | 0.308 | 0.285 | 0.261 | 0.302 | 0.268 | – | 0.233 | 0.266
14 | NCI-H1915 | 0.676 | 0.66 | 0.747 | 0.711 | 0.755 | 0.541 | 0.522 | 0.545 | 0.508 | 0.575 | 0.534 | 0.507 | 0.52 | 0.551 | 0.765 | 0.745 | 0.764 | 0.826 | 0.754
15 | NCI-H322M | 0.568 | 0.531 | 0.53 | 0.488 | 0.452 | 0.486 | 0.439 | 0.48 | 0.508 | 0.466 | 0.393 | 0.362 | 0.374 | 0.45 | 0.913 | 0.951 | 0.88 | 0.842 | 0.949
16 | NCI-H2342 | 0.46 | 0.515 | 0.571 | 0.476 | 0.459 | 0.508 | 0.52 | 0.539 | 0.527 | 0.554 | 0.505 | 0.598 | 0.47 | 0.48 | 0.647 | 0.622 | 0.795 | 0.642 | 0.841
17 | NCI-H647 | 0.493 | 0.464 | 0.441 | 0.621 | 0.525 | 0.428 | 0.262 | 0.395 | 0.423 | 0.466 | 0.398 | 0.413 | 0.353 | 0.367 | 0.122 | 0.144 | 0.387 | 0.165 | 0.216
18 | NCI-H2170 | 0.871 | 0.865 | 0.82 | 0.75 | 0.755 | 0.397 | 0.382 | 0.388 | 0.377 | 0.397 | 0.362 | 0.396 | 0.369 | 0.371 | 0.628 | 0.726 | 0.39 | 0.734 | 0.645
19 | NCI-H2085 | 1.02 | 0.933 | 1.14 | 0.953 | 0.987 | 0.512 | 0.488 | 0.471 | 0.465 | 0.474 | 0.485 | 0.455 | 0.439 | 0.443 | 0.47 | 0.434 | 0.428 | 0.438 | 0.462
20 | NCI-H727 | 0.547 | 0.56 | 0.856 | 0.488 | 0.58 | 0.631 | 0.652 | 0.687 | 0.639 | 0.606 | 0.575 | 0.528 | 0.404 | 0.38 | 0.292 | 0.261 | 0.729 | 0.332 | 0.352
21 | NCI-H441 | 0.97 | 1.2 | 1.1 | 1.01 | 0.954 | 0.237 | 0.214 | 0.268 | 0.2 | 0.23 | 0.132 | 0.146 | 0.116 | 0.13 | 0.274 | 0.314 | 0.333 | 0.302 | 0.269
22 | LOU-NH91 | 0.746 | 0.732 | 0.782 | 0.789 | 0.779 | 0.536 | 0.463 | 0.539 | 0.58 | 0.553 | 0.528 | 0.471 | 0.546 | 0.513 | 0.38 | 0.364 | 0.332 | 0.379 | 0.393
23 | NCI-H3122 | 0.972 | 1.02 | 0.945 | 1.06 | 1.15 | 0.186 | 0.194 | 0.213 | 0.217 | 0.161 | 0.158 | 0.183 | 0.171 | 0.185 | 0.0808 | 0.0851 | 0.0914 | 0.0799 | 0.0833
24 | NCI-H460 | 0.56 | 0.633 | 0.772 | 0.653 | 0.611 | 0.278 | 0.162 | 0.142 | 0.197 | 0.137 | 0.226 | 0.0841 | 0.058 | 0.143 | 0.0344 | 0.0382 | 0.0342 | 0.0458 | 0.0311
25 | NCI-H650 | 1.05 | 1.09 | 1.07 | 0.965 | 1 | 0.32 | 0.3 | 0.356 | 0.319 | 0.341 | 0.305 | 0.211 | 0.263 | 0.256 | 0.788 | – | 0.81 | 0.837 | 0.801
26 | NCI-H1793 | 0.41 | 0.243 | 0.605 | 0.514 | 0.413 | 0.351 | 0.306 | 0.335 | 0.277 | 0.334 | 0.367 | 0.294 | 0.225 | 0.289 | 0.26 | 0.196 | 0.199 | 0.463 | 0.182
27 | NCI-H1734 | 0.548 | 0.648 | 0.584 | 0.499 | 0.457 | 0.359 | 0.349 | 0.387 | 0.348 | 0.324 | 0.275 | 0.236 | 0.226 | 0.282 | 0.161 | 0.188 | – | 0.199 | 0.201
28 | LXF-289 | 1.07 | 1.06 | 1.14 | 1.22 | 1.16 | 0.659 | 0.6 | 0.563 | 0.656 | 0.585 | 0.644 | 0.541 | 0.62 | 0.661 | 0.639 | 0.71 | 0.655 | 0.724 | 0.743
